Assay [1] has as its system MRSA. Briefly: MICs of antibiotics against MRSA in the presence of flufenamic acid (synergy). It counts as cell-based, Staphylococcus aureus. To be noted: for susceptibility of MRSA to the antibiotic in the presence of FLF: with FLF (FIG. 4B, 4C).
Assay [2] addresses T1, SA2001 (Staphylococcus aureus, UniProt Q2FW57).
T1 sequence (Q2FW57 1-279 N2D): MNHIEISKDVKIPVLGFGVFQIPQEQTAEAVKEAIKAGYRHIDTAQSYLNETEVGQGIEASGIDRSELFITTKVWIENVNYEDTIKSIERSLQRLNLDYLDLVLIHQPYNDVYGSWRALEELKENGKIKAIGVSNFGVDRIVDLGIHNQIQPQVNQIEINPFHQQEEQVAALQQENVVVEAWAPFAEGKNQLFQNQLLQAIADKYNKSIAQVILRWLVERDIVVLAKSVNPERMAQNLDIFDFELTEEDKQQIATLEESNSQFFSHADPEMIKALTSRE
Briefly: Aldo-keto reductase enzymatic assay (NADPH absorbance 340 nm, methylglyoxal). It counts as biochemical, S. aureus. To be noted: 0.5 mM NADPH, 5 mM methylglyoxal, 10 μM enzyme, pH 7.0. On the procedure: (§1) Aldo-keto reductase (AKR) activity was measured to examine whether FLF inhibits the enzymatic activities of SA1606 and SA2001 on the basis of the data of Example 8 showing the binding of FLF to SA16006 and SA2001. On the whole, bacterial AKR catalyzes the reduction of various chemicals with NADPH. […] As is evidenced in Example 6, SA1606 and SA2001 have structural and functional similarity with the human aldo-keto reductase AKR1C3 and the bacterial aldo-keto reductase DkgA. Thus, the enzymatic activity of […] was measured to analyze the inhibitory activity of FLF. The reaction for evaluating enzymatic activity was comprised of 0.5 mM NADPH, 5 mM methylglyoxal and 10 μM aldo-keto reductase in 50 mM sodium phosphate buffer, pH 7.0. Absorbance at 340 nm of the reaction was measured for 10 min to calculate the consumption of NADPH.

Assay [3] has as its target T2, SA1606 (Staphylococcus aureus, UniProt Q2FXE2).
T2 sequence (Q2FXE2 1-277 N135K/V136A/R184H/A227G/T230I/K274T): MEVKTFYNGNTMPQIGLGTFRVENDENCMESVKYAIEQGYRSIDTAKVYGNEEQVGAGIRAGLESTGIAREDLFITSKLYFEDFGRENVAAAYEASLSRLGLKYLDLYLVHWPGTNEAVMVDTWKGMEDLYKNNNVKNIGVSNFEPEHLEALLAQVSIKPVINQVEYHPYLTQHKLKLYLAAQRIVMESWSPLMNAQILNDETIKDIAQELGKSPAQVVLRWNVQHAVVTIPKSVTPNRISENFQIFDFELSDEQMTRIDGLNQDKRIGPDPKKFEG
The assay is described as above. Format: biochemical, S. aureus. Particulars: 0.5 mM NADPH, 5 mM methylglyoxal, 10 μM enzyme, pH 7.0. On the procedure: as §1

The subject of assay [4] is S. aureus MSSA. Briefly: MIC by broth dilution method. Format: cell-based. To be noted: Staphylococcus aureus, 24 hours of incubation. For orientation: Dilution methods test growth across graded concentrations, often in twofold steps.
Assay [5] deals with MRSA. Briefly: Screening of Prestwick chemical library for inhibitory activity against bacteria. Format: cell-based, S. aureus. To be noted: 100 μg/mL, 24 hours. On the procedure:
To screen compounds having inhibitory activity against bacteria, MRSA was 200-fold diluted in 0.2 mL of LB in 96-well microplates and cultured overnight at 37° C. with agitation at 180 RPM. Prestwick chemical library was added at a final concentration of 100 μg/mL per well. The microplates were incubated at 37° C. for 24 hours with agitation at 180 RPM and the optical density at 600 nm was measured.

In assay [6] the test system is Listeria monocytogenes. Briefly: Growth inhibition, cell density OD 600 nm. It counts as cell-based. To be noted: 20~40 μg/mL FLF, 8 hours. On the procedure:
(§2) FLF was examined for inhibitory activity against various bacteria. Staphylococcus epidermidis, Bacillus subtilis, Listeria monocytogenes and Enterococcus faecium were cultured overnight and 200-fold diluted in 2 mL of LB containing various concentrations of FLF. Cell densities were determined by measuring the OD at 600 nm after incubation at 37° C. for 8 hours. The MICs of FLF were determined using a broth dilution method. In brief, bacteria were inoculated into LB containing serially diluted concentrations of FLF in 96-well microplates. After 24 hours of incubation, bacterial growth was examined. Antibacterial activity of FLF was tested over various Gram-positive bacteria including Staphylococcus epidermidis, Bacillus subtilis, Listeria monocytogenes, and Enterococcus faecium.

Assay [7] deals with Enterococcus faecium. Briefly: Growth inhibition, cell density OD 600 nm. Format: cell-based. To be noted: 20~40 μg/mL FLF, 8 hours. On the procedure: as §2
For assay [8], the system named is Staphylococcus epidermidis. Briefly: Growth inhibition, cell density OD 600 nm. Format: cell-based. Particulars: 20~40 μg/mL FLF, 8 hours. On the procedure:
as §2

The test system of assay [9] is Bacillus subtilis. Briefly: Growth inhibition, cell density OD 600 nm. It counts as cell-based. Particulars: 20~40 μg/mL FLF, 8 hours. On the procedure: as §2
Assay [10] relates to S. aureus MRSA. Briefly: MIC by broth dilution method. Format: cell-based, Staphylococcus aureus. On the procedure:
(§3) FLF was assayed for inhibitory activity against Methicillin-resistant staphylococcus aureus (MRSA). In this regard, Methicillin-resistant Staphylococcus aureus (MRSA) was cultured overnight and 200-fold diluted in 2 mL of LB containing various concentrations of FLF. After additional incubation at 37° C. for 8 hours, cell densities were measured by recoding OD at 600 nm.
as §2

Assay [11] deals with Methicillin-resistant Staphylococcus aureus (MRSA). Briefly: Growth inhibition, cell density OD 600 nm. It counts as cell-based. Particulars: 8 h, read-out: growth inhibited. On the procedure: as §3
Assay [12] deals with E. faecium. Briefly: MIC by broth dilution method. Particulars: Enterococcus faecium, 24 hours of incubation. Format: cell-based. On the procedure:
as §2

For assay [13], the system named is L. monocytogenes. Briefly: MIC by broth dilution method. Particulars: Listeria monocytogenes, 24 hours of incubation. Format: cell-based. On the procedure: as §2
Assay [14] deals with S. epidermidis. Briefly: MIC by broth dilution method. Format: cell-based. Particulars: Staphylococcus epidermidis, 24 hours of incubation. On the procedure:
as §2

Assay [15] concerns B. subtilis. Briefly: MIC by broth dilution method. To be noted: Bacillus subtilis, 24 hours of incubation. It counts as cell-based. On the procedure:
as §2

The target of assay [16] is T2, SA1606. Briefly: Binding affinity by isothermal titration calorimetry. On the set-up: species or system S. aureus. Particulars: ITC, 10 mM HEPES pH 7.0, 3% DMSO; read-out: dissociation constant (Kd). From the text:
(§4) Genes of SA1606 (GenBank number: BAB42874) and […] (GenBank number: BAB43292) were amplified using PCR with the genomic DNA of S. aureus N315 serving as a template. PCR primers were 5′-[…] […]-3′ (SEQ ID NO: 4) and 5′-[…]-3′ (SEQ ID NO: 5) for SA1606, and 5′-[…]-3′ (SEQ ID NO: 6) and 5′-5 […]-3′ (SEQ ID NO: 7) for SA2001. Ncol and Xhol restriction sites were incorporated into the forward primer sequences and the reverse primer sequences, respectively. The PCR products were digested with Ncol and Xhol and inserted into Ncol/Xhol-digested pET28a vectors (Novagen). The DNAs 10 thus ligated were transformed into E. coli BL21 DE3 (Invitrogen). Coding sequences of the cloned genes SA1606 and SA2001 were confirmed by nucleotide sequencing. Recombinant SA1606 and SA2001 with histidine tag at the C-terminus were expressed in E. coli and then loaded into Hi-Trap chelating 15 columns (GE Healthcare) equilibrated with buffer A (20 mM HEPES, pH 7.5, 50 mM imadazole and 500 mM NaCl). […]
(§5) Binding affinity for SA1606 and SA2001 of FLF was measured using VP-ITC Micro calorimeter (MicroCal Inc). […] Thereafter, the affinity of FLF for the proteins were calculated on the basis of the heat generated upon the binding of FLF to the proteins. The data was analyzed with ORIGIN software (MicroCal Inc).
A general note: In ITC the heat of successive injections is recorded.

For assay [17], the target named is T3, SA2001 (Staphylococcus aureus, UniProt Q2FW57, N2D).
T3 sequence (Q2FW57 1-279 N2D): T1 sequence (Q2FW57 1-279 N2D)
The assay is described as above. On the set-up: species or system S. aureus. Particulars: ITC, 10 mM HEPES pH 7.0, 3% DMSO; read-out: dissociation constant (Kd).
From the text: as §4, §5

Molecules are shown by their SMILES. Converted amounts (≈) assume the structure as drawn.

As usually defined, the Kd is the concentration at which binding is half-saturated.

Take `CC(=O)OCC1=C(C(=O)O)N2C(=O)[C@@H](NC(=O)Cc3cccs3)[C@H]2SC1` [Cephalothin]: the “MICs of antibiotic against MRSA” value in assay [1] (10 μg/ml FLF) amounted to 128 µg/mL; in [1] (20 μg/ml FLF) it was 64 µg/mL; in assay [1] (30 μg/ml FLF), 16 µg/mL; in assay [1] (40 μg/ml FLF), 4 µg/mL; in assay [1] (No FLF), 128 µg/mL. In addition, the “susceptibility of MRSA to the antibiotic in the presence of FLF” value in [1] is “far more susceptible”.

As to `O=C(O)c1ccccc1Nc1cccc(C(F)(F)F)c1` [FLF, flufenamic acid], the “synergistic effect with classical antibiotics” value in [1] (FLF in combination with Norfloxacin, Oxacillin or Cephalothin, MRSA) is reported as “synergistically inhibited”. Also, the “enzymatic activity (reduction of methylglyoxal with NADPH) in the presence of FLF” value in assay [2] and in assay [3] was “inhibited” each time. Besides, the MIC was found to be 64 µg/mL (≈ 228 µM) in [4]; 64 µg/mL (≈ 228 µM) in [10] (Staphylococcus aureus, MRSA, 24 h, read-out: MICs); 32 µg/mL (≈ 114 µM) in assay [12]; 32 µg/mL (≈ 114 µM) in assay [13]; 64 µg/mL (≈ 228 µM) in assay [14]; 32 µg/mL (≈ 114 µM) in assay [15]. Moreover, the “inhibitory activity against bacteria (OD 600 nm) in library screen” value in assay [5] is on record as “most inhibitory”. Also, the growth inhibited in assay [6], in [7], in assay [8] and in assay [9] was 90% throughout. Further, in assay [10] (S. aureus MRSA, 24 hours of incubation), the MICs was determined as 64 µg/mL. Also, in [11], the inhibition at 40 µg/mL came out at 90%. Besides, the Kd in assay [16] was 14.5 µM; in assay [17] it was 38.1 µM.

On to `CCn1cc(C(=O)O)c(=O)c2cc(F)c(N3CCNCC3)cc21` [Norfloxacin], for which the “MICs of antibiotic against MRSA” value in assay [1] (10 μg/ml FLF) was determined as 64 µg/mL; in [1] (20 μg/ml FLF), 32 µg/mL; in assay [1] (30 μg/ml FLF), 16 µg/mL; in [1] (40 μg/ml FLF), 8 µg/mL; in assay [1] (No FLF), 128 µg/mL.

On to `Cc1onc(-c2ccccc2)c1C(=O)N[C@@H]1C(=O)N2[C@@H]1SC(C)(C)[C@@H]2C(=O)O` [Oxacillin], for which the “MICs of antibiotic against MRSA” value in assay [1] (10 μg/ml FLF) was 256 µg/mL; in [1] (30 μg/ml FLF) it was 32 µg/mL; in assay [1] (40 μg/ml FLF), 8 µg/mL; in assay [1] (No FLF), over 256 µg/mL. For the same compound, in assay [1], the “susceptibility of MRSA to the antibiotic in the presence of FLF” value is on record as “far more susceptible”.

(Values after patent US9238016B2, “Antibiotic composition comprising flufenamic acid as an active ingredient” (SUNGKYUNKWAN UNIVERSITY FOUNDATION FOR CORPORATE …, priority 2010, dated 2016).)
